“And” between values parts separate entries of the source, which are not always exact repeats. Equal values may be shown once.
Biological target: T1, HsERK8 (Homo sapiens, UniProt Q8TD08)
T1 construct: plasmid pGEX2T expressing the full-length hERK8 coding region; made in house; host or cells: Escherichia coli Rosetta 2 (DE3)
T1 sequence (Q8TD08 1-544): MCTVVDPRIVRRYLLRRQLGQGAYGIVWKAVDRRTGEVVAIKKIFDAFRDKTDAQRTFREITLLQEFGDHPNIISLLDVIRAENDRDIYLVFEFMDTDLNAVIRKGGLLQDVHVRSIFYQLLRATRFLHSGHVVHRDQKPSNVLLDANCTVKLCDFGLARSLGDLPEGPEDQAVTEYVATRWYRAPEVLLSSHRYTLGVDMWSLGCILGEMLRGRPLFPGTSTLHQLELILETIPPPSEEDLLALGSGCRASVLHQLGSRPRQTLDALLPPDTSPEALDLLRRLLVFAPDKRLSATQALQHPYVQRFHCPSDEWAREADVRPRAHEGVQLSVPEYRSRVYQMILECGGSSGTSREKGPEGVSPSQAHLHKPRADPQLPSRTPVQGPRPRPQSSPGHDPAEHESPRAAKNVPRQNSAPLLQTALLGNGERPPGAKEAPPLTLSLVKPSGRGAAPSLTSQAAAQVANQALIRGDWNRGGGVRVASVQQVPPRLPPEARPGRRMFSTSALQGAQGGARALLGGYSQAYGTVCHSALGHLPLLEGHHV
Test: Luciferase-based kinase inhibition assay (ATP luminescence), GST-tagged HsERK8 with MBP substrate
Assay type: biochemical
Details: for raw luminescence, HsERK8: replicate wells; for raw luminescence, HsERK8 / Luminescence Raw (Kinase-Glo): listed as Sil; for Luminescence Raw (Kinase-Glo): HsERK8

CCCc1nn(C)c2c(=O)[nH]c(-c3cc(S(=O)(=O)N4CCN(C)CC4)ccc3OCC)nc12 [Sildenafil]
raw luminescence, HsERK8 (0.00015 mM compound, sheet ADP_ATP_glo081724 (3)): 2773.07 RLU and 2877.12 RLU and 2182.72 RLU | raw luminescence, HsERK8 (0.00015 mM compound, sheet Kinase_glo 08142024 (2)): 6784.32 RLU and 6634.26 RLU and 5826.91 RLU | raw luminescence, HsERK8 (0.00015 mM compound, sheet Kinase_glo_080924_IFPS (2)): 3800.03 RLU and 4341.28 RLU and 3728.16 RLU | raw luminescence, HsERK8 (0.00061 mM compound, sheet ADP_ATP_glo081724 (3)): 3277.47 RLU and 3338.54 RLU and 3085.21 RLU | raw luminescence, HsERK8 (0.00061 mM compound, sheet Kinase_glo 08142024 (2)): 5721.23 RLU and 5653.6 RLU and 3903.63 RLU | raw luminescence, HsERK8 (0.00061 mM compound, sheet Kinase_glo_080924_IFPS (2)): 1396.94 RLU and 1477.79 RLU and 1381.21 RLU | raw luminescence, HsERK8 (0.00244 mM compound, sheet ADP_ATP_glo081724 (3)): 3469.73 RLU and 3284.26 RLU and 2883.9 RLU | raw luminescence, HsERK8 (0.00244 mM compound, sheet Kinase_glo 08142024 (2)): 7264.08 RLU and 7348.62 RLU and 5611.33 RLU | raw luminescence, HsERK8 (0.00244 mM compound, sheet Kinase_glo_080924_IFPS (2)): 3130.75 RLU and 3411.49 RLU and 2899.43 RLU | raw luminescence, HsERK8 (0.00977 mM compound, sheet ADP_ATP_glo081724 (3)): 2892.95 RLU and 2795.69 RLU and 2354.62 RLU | raw luminescence, HsERK8 (0.00977 mM compound, sheet Kinase_glo 08142024 (2)): 7046.4 RLU and 7135.16 RLU and 5429.57 RLU | raw luminescence, HsERK8 (0.00977 mM compound, sheet Kinase_glo_080924_IFPS (2)): 3247.54 RLU and 3584.42 RLU and 3180.16 RLU | raw luminescence, HsERK8 (0.03906 mM compound, sheet ADP_ATP_glo081724 (3)): 3397.35 RLU and 3566.99 RLU and 3141.76 RLU | raw luminescence, HsERK8 (0.03906 mM compound, sheet Kinase_glo 08142024 (2)): 6515.91 RLU and 6714.58 RLU and 5167.5 RLU | raw luminescence, HsERK8 (0.03906 mM compound, sheet Kinase_glo_080924_IFPS (2)): 3400.26 RLU and 3463.14 RLU and 3305.93 RLU | IC50 (50 μM ATP, 30 min 30°C, triplicate, n/d = no detectible inhibition, read-out: HsERK8 IC50): 8 mM | raw luminescence, HsERK8 (0.15625 mM compound, sheet ADP_ATP_glo081724 (3)): 3281.99 RLU and 3150.8 RLU and 2531.05 RLU | raw luminescence, HsERK8 (0.15625 mM compound, sheet Kinase_glo 08142024 (2)): 6655.4 RLU and 6579.31 RLU and 5562.72 RLU | raw luminescence, HsERK8 (0.15625 mM compound, sheet Kinase_glo_080924_IFPS (2)): 3817.99 RLU and 4080.76 RLU and 3636.08 RLU | raw luminescence, HsERK8 (0.62500 mM compound, sheet ADP_ATP_glo081724 (3)): 3474.25 RLU and 3356.64 RLU and 2585.33 RLU | raw luminescence, HsERK8 (0.62500 mM compound, sheet Kinase_glo 08142024 (2)): 8487.8 RLU and 8306.04 RLU and 6687.1 RLU | raw luminescence, HsERK8 (0.62500 mM compound, sheet Kinase_glo_080924_IFPS (2)): 5547.32 RLU and 5693.3 RLU and 4916.23 RLU | raw luminescence, HsERK8 (2.50000 mM compound, sheet ADP_ATP_glo081724 (3)): 11748.2 RLU and 11610.3 RLU and 8563.49 RLU | raw luminescence, HsERK8 (2.50000 mM compound, sheet Kinase_glo 08142024 (2)): 29728.4 RLU and 30364.6 RLU and 22572.1 RLU | raw luminescence, HsERK8 (2.50000 mM compound, sheet Kinase_glo_080924_IFPS (2)): 13814.9 RLU and 12641.6 RLU and 13534.9 RLU | raw luminescence, HsERK8 (10.00000 mM compound, sheet ADP_ATP_glo081724 (3)): 18796.3 RLU and 18852.8 RLU and 18760.1 RLU | raw luminescence, HsERK8 (10.00000 mM compound, sheet Kinase_glo 08142024 (2)): 37233.5 RLU and 36922.8 RLU and 36986.2 RLU | raw luminescence, HsERK8 (10.00000 mM compound, sheet Kinase_glo_080924_IFPS (2), signal = ATP left): 19808.3 RLU and 19442.1 RLU and 19894.1 RLU | Luminescence Raw (Kinase-Glo) (inhibitor 0.00976562 mM, sheet Sil_Pred3, read 3): 76824 and 76849.7 and 75718.2 | Luminescence Raw (Kinase-Glo) (inhibitor 0.0195312 mM, sheet Sil_Pred3, read 3): 84913.3 and 83327.3 and 84201.1 | Luminescence Raw (Kinase-Glo) (inhibitor 0.0390625 mM, sheet Sil_Pred3, read 3): 86810.9 and 87656.6 and 88003.3 | Luminescence Raw (Kinase-Glo) (inhibitor 0.078125 mM, sheet Sil_Pred3, read 3): 83688.1 and 81764.7 and 82605.8 | Luminescence Raw (Kinase-Glo) (inhibitor 0.15625 mM, sheet Sil_Pred3, read 3): 84571.3 and 87872.1 and 86433.7 | Luminescence Raw (Kinase-Glo) (inhibitor 0.3125 mM, sheet Sil_Pred3, read 3): 80438.8 and 81286.8 and 83022.8 | Luminescence Raw (Kinase-Glo) (inhibitor 0.625 mM, sheet Sil_Pred3, read 3): 81408.6 and 81148.6 and 80450.5 | Luminescence Raw (Kinase-Glo) (inhibitor 0.00976562, sheet Sil_Pred1, read 1): 87353.2 and 86988.7 and 86809.9 | Luminescence Raw (Kinase-Glo) (inhibitor 0.00976562, sheet Sil_Pred2, read 2): 79598.9 and 79331.5 and 78826.8 | Luminescence Raw (Kinase-Glo) (inhibitor 0.0195312, sheet Sil_Pred1, read 1): 97908.4 and 96150.4 and 96258.1 | Luminescence Raw (Kinase-Glo) (inhibitor 0.0195312, sheet Sil_Pred2, read 2): 87627.4 and 86394.8 and 87122.7 | Luminescence Raw (Kinase-Glo) (inhibitor 0.0390625, sheet Sil_Pred1, read 1): 100125 and 101023 and 101243 | Luminescence Raw (Kinase-Glo) (inhibitor 0.0390625, sheet Sil_Pred2, read 2): 89720.6 and 90218.3 and 91030 | Luminescence Raw (Kinase-Glo) (inhibitor 0.078125, sheet Sil_Pred1, read 1): 96870.1 and 94163.1 and 94380.9 | Luminescence Raw (Kinase-Glo) (inhibitor 0.078125, sheet Sil_Pred2, read 2): 86171.5 and 85045.8 and 85399.3 | Luminescence Raw (Kinase-Glo) (inhibitor 0.15625, sheet Sil_Pred1, read 1): 97571.5 and 101844 and 101823 | Luminescence Raw (Kinase-Glo) (inhibitor 0.15625, sheet Sil_Pred2, read 2): 87601.8 and 91464.9 and 91334.7 | Luminescence Raw (Kinase-Glo) (inhibitor 0.3125, sheet Sil_Pred1, read 1): 91875.5 and 94802.6 and 96700.5 | Luminescence Raw (Kinase-Glo) (inhibitor 0.3125, sheet Sil_Pred2, read 2): 83203.8 and 85106.3 and 85450.5 | Luminescence Raw (Kinase-Glo) (inhibitor 0.625 (mM per sheet Pred3), sheet Kinase-Glo802124_Sil_Pred1, read 1, triplicate wells): 95077.7 and 94021 and 92790.1 | Luminescence Raw (Kinase-Glo) (inhibitor 0.625, sheet Sil_Pred2, read 2): 85048.1 and 84027.1 and 84180.6

From article PMC12445744, “Molecular docking to homology models of human and Trypanosoma brucei ERK8 that identified ortholog-specific inhibitors” (PLOS Neglected Tropical Diseases, 2025)
